Laboratory results from patent US20250360087A1, “COMPOSITIONS COMPRISING LIPID DROPLETS ENCAPSULATED WITHIN POLYSACCHARIDE WALLS AND USES THEREOF” (UNIVERSITY OF SOUTH AUSTRALIA, priority 2022, published 2025).

How the values were obtained:
S. aureus ATCC 25923 = test: Minimum inhibitory concentration of rifampicin in S. aureus; format: cell-based; conditions: Staphylococcus aureus, ATCC25923; 24 h, 37° C., turbidity; read-out: MIC, concentration required to inhibit growth
Protocol: Single colonies of S. aureus ATCC 25923 were suspended in 0.9% sterile saline to reach approximately 1×10^8 colony forming units (CFU)/mL (equivalent to an optical density of 0.08-0.12 at 600 nm). The bacterial suspension was further diluted 1/100 with broth. Bacterial suspension was added to 96-wells. […] The 96-well plate was incubated at 37° C. for 24 h. The plates were visually assessed for turbidity indicating growth of bacteria.

S. aureus biofilms = test: In vitro biofilm study, crystal violet assay; format: cell-based, Staphylococcus aureus
Protocol: Bacterial suspension was further diluted 1/15 with broth and subsequently added to the wells of a 96-well plate. The outer wells were filled with PBS (200 μL) for hydration purposes and the second right column contained sterile broth (100 μL) to serve as negative control. The plate was wrapped in aluminium foil and incubated on a 3D rotating platform at 70 rpm at 37° C. for 24 h to grow biofilms. After 24 h incubation, turbid biofilms sitting at the bottom of wells could be assessed visually. The broth in the wells of the plate was aspired gently by a vacuum pump without disturbing the biofilms and the wells were washed with 0.9% Saline (100 μL) twice to remove nonadherent bacteria. […] The plate was wrapped in aluminium foil and incubated on a 3D rotating platform at 70 rpm at 37° C. for 24 h. After 24 h of exposure to the formulations, supernatants were removed gently without disturbing the biofilms by a vacuum pump and the wells were washed with 0.9% Saline (100 μL) twice. Biofilms were fixed by oven heating at 60° C. for 1 h. […] The biofilm biomass of S. aureus was quantified by spectrometry at 595 nm in 96 well plate reader.

RAW 264.7 macrophages = test: Cellular cytotoxicity, MTT assay; format: cell-based, Murine; conditions: after 1 h incubation
Protocol: 100 μL of cell suspension at a density of 7000 cells per well was seeded in 96-well plate and incubated (37° C., 5% CO2) for 12 h to allow the attachment of cells. After incubation the supernatant was discarded and replaced with 200 μL of particle solution (in DMEM) at various concentrations (ranging from 10 to 100 μg/mL) and incubated for further 24 h. After incubation, the cells were washed with sterile PBS and 10 μL of MTT (3-(4,5-dimethylthiazol-2-yl)-2,5-diphenyltetrazolium bromide) solvent was added to each well prior to incubation for a further 4 h. Afterward, the supernatant was discarded, and the absorbance was read at OD=540 nm using a microplate reader.

Molecule | MIC (S. aureus ATCC 25923) | biofilm biomass remaining (S. aureus biofilms; exposure to 1 μg/mL of rifampicin) | reduction in biofilm biomass (S. aureus biofilms; rifampicin 16 μg/mL, 24 h) | biofilm reduction (S. aureus biofilms; rifampicin 1 to 16 μg/mL, 24 h) | cellular viability (positive control) (RAW 264.7 macrophages)
CO[C@H]1/C=C/O[C@@]2(C)Oc3c(C)c(O)c4c(O)c(c(/C=N/N5CCN(C)CC5)c(O)c4c3C2=O)NC(=O)/C(C)=C\C=C\[C@H](C)[C@H](O)[C@@H](C)[C@@H](O)[C@@H](C)[C@H](OC(C)=O)[C@@H]1C [rifampicin] | < 0.0156 mg/L | 34% | up to 82% | more than 50% | 
Triton-X |  |  |  |  | no cellular viability
